PMC6063448, “Antimicrobial activity of linear lipopeptides derived from BP100 towards plant pathogens” (PLoS ONE, 2018)

Assays:
[1] = tested on: defense-related genes in tomato plants; test: Induction of defense gene expression of tomato plants (RT-qPCR); assay type: in vivo, tomato cv. Rio Grande; details: tomato leaves sprayed, 24 h; peptides and flg15 125 μM, JA 2.5 mM, ASM 300 mg/L; ΔΔCt relative to actin; above 2 = overexpression
Method: Seeds of tomato cv. Rio Grande plants were sown in hydroponic seed plugs (rockwool), germinated and grown under controlled greenhouse conditions (25 ± 2°C, 16 h light / 15 ± 2°C, 8 h dark, and 60% RH). Two-week old seedlings (two cotyledons) were transplanted into rockwool plugs (7.5×7.5×6.5 cm, Grodan Iberica). The experimental design consisted of three replicates of three plants per treatment. After two weeks, tomato leaves were sprayed with aqueous solutions of BP100, 9 selected derivatives and flg15 at 125 μM, jasmonic acid at 2.5 mM (Sigma-Aldrich, Sant Louis, Missouri, UE), and acybenzolar-S-methyl at 300 mg/L (Syngenta, Basel, Switzerland), until the run-off point. Water-sprayed plants were used as not treated controls. Twenty-four hours after product application leaf samples were collected and processed to extract RNA for RT-qPCR assays. Plant material was ground to a fine powder in liquid nitrogen with the Tissuelyzer II system (Qiagen). Total RNA was extracted from leaves using PureLink Plant RNA Reagent (Invitrogen, Life Technologies) according to the manufacturer’s manual. The RNA was solubilized in RNAse free water and was routinely subjected to DNAse treatment (Ambion® Turbo DNA-free™, Life Technologies) to remove any contaminant DNA. In each step, the RNA was quantified using a Nanodrop N-2000 spectrophotometer, and its integrity verified by denaturing agarose gel electrophoresis. First-strand of complementary DNA (cDNA) was generated from leave RNA using reverse transcriptase (High Capacity cDNA Reverse Transcription Kit, Invitrogen) according to the manufacturer’s manual.
To test gene defense induction in the treated tomato plants, a qPCR assay was performed. Quantitative PCR was carried out in a fluorometric thermal cycler (qPCR Quant Studio 5, Applied Biosystems) by using a Mix SYBR®Green PCR Master Mix (Applied Biosystems). The total reaction volume of this PCR reaction was 20 μL and the reaction mixture was 1 μL of each primer set at the adequate concentration, 10 μL of MixSyber Green, 6 μL of distilled water and 2 μL of cDNA. Melting curve analysis was performed after amplification to verify amplification specificity. A constitutive gene (actin gene) was used as reference control, and the following genes implicated in plant defense response were analyzed: Pathogenesis-related protein-1 (PR1), Harpin (Harp), Polyphenol oxidase (PPO), Subtilisin-like protease (Sub1), Blue copper binding-protein (BCB), Osmotin (Osm2), Acidic β-1,3 endoglucanase (GluA), Lypoxigenase (LOX), Protein inhibitor II (PinII), Dehydrin (Tas14) and Ethylene response transcription factor (ERT3). […] For each gene system, the concentration of the primer pair was optimized. The primer concentration was 100 nM for all the genes except for the GluA, Harp, PR1 and actin genes which optimized concentration was 300 nM. A calibration curve was prepared by cloning the corresponding DNA in the pSpark cloning vector (Canvax, Córdoba, Spain) according to the manufacturer instructions, which was then used to transform E. coli DH5α by standard procedures. The number of plasmid copies were quantified after purification from E. coli (QIAGEN Iberia, S. L., Madrid, Spain), and appropriate dilutions were prepared to obtain the standard curve. […] Relative quantification of gene expression was done using the ΔΔCt method. Each biological repetition treatment was analyzed in duplicate. The mean of the Ct values obtained were used to estimate the fold change value of the endogenous reference gene (actin) and the target plant defense genes.

[2] = tested on: Penicillium expansum EPS26; test: MIC, antifungal growth inhibition in microtiter plates (PDB); assay type: cell-based; details: Pe, 22°C, seven days, OD 600 nm, lowest concentration with no growth, given as interval of tested concentrations, three replicates, experiment repeated twice
Method: (§1) The following plant pathogenic fungal strains were used: Penicillium expansum EPS26 (Institut de Tecnologia Agroalimentària, Universitat de Girona, Spain) and Fusarium oxysporum f. sp. lycopersici FOL 3 race 2 (ATCC 201829, American Type Culture Collection,Virginia, EEUU). Strains were cultured on potato dextrose agar (PDA) plates (Difco). Conidia from P. expansum and microconidia from F. oxysporum were obtained from 5–7 day-old agar Potato Dextrose (PDA) cultures after growth at 25°C. Inoculum was prepared by scraping spore material from culture surfaces with a cotton swab and resuspending it in distilled water containing 0.5‰ of tween 80. The suspensions were filtered through Miracloth (Merk, Millipore) and the concentration of conidia was determined using a hemacytometer and adjusted to 10^4 conidia mL^-1 for F. oxysporum and to 10^3 conidia mL^-1 for P. expansum.
(§2) Lyophilized peptides were solubilized in sterile Milli-Q water to a final concentration of 1 mM and filter sterilized through a 0.22-μm pore filter. […] For antibacterial activity 20 μL of each dilution were mixed in a microtiter plate well with 20 μL of the corresponding suspension of the bacterial indicator, 160 μL of Trypticase Soy Broth (TSB) (BioMèrieux, France) to a total volume of 200 μL. For antifungal activity 20 μL of each stock solution were mixed in a microtiter plate well with 80 μL of the corresponding suspension of the fungal pathogen and 100 μL of double concentrated Potato Dextrose Broth (PDB) to a total volume of 200 μL containing 0.003% w/v of chloramphenicol to prevent bacterial contamination.
(§3) Three replicates for each combination of strain, compound and concentration were used. Microbial growth was determined by optical density measurement at 600 nm (Bioscreen C, Labsystem, Helsinki, Finland). For antibacterial activity microplates were incubated at 25°C with 20 s shaking before hourly absorbance measurement for 48 h. For antifungal activity microplates were incubated at 22°C with 1 min shaking before absorbance measurement that were done every two hours during seven days. The experiment was repeated twice. The MIC was taken as the lowest compound concentration with no growth at the end of the experiment.

[3] = tested on: Fusarium oxysporum f. sp. lycopersici FOL 3 race 2; test: as above; assay type: cell-based; details: Fo, 22°C, seven days, OD 600 nm, lowest concentration with no growth, given as interval of tested concentrations, three replicates, experiment repeated twice
Method: as §1, §2, §3

[4] = tested on: Pseudomonas syringae pv. syringae EPS94; test: MIC, growth inhibition in microtiter plates (TSB); assay type: cell-based; details: Pss, 25°C, 48 h, OD 600 nm, lowest concentration with no growth, given as interval of tested concentrations, three replicates, experiment repeated twice
Description: (§4) The following plant pathogenic bacterial strains were used: Erwinia amylovora PMV6076 (Institut National de la Recherche Agronomique, Angers, France), Pseudomonas syringae pv. syringae EPS94 (Institut de Tecnologia Agroalimentària, Universitat de Girona, Spain), Xanthomonas axonopodis pv. vesicatoria 2133–2, Pseudomonas syringae pv. actinidiae Psa3700.1.1, Xanthomonas fragariae Xf349-9A (Instituto Valenciano de Investigaciones Agrarias, Valencia, Spain), and Xanthomonas arboricola pv. pruni CFBP5563 (Collection Française de Bactéries associées aux Plantes, Angers, France). All bacteria except for X. fragariae were stored in Luria Bertani (LB) broth supplemented with glycerol (20%) and maintained at -80°C. For X. fragariae, Medium B [46] was used instead of LB. E. amylovora, X. arboricola pv. pruni, P. syringae pv. syringae and P. syringae pv. actinidiae were scrapped from the agar media after growing for 24 h at 25°C, and X. axonopodis pv. vesicatoria and X. fragariae after growing for 48 h at 25°C. The cell material was suspended in sterile water to obtain a suspension of 10^8 CFU mL^-1.
as §2, §3

[5] = tested on: Pseudomonas syringae pv. actinidiae Psa3700.1.1; test: MIC, growth inhibition in microtiter plates (TSB); assay type: cell-based; details: Psa, 25°C, 48 h, OD 600 nm, lowest concentration with no growth, given as interval of tested concentrations, three replicates, experiment repeated twice
Description: as §4, §2, §3

[6] = tested on: Xanthomonas axonopodis pv. vesicatoria 2133–2; test: MIC, growth inhibition in microtiter plates (TSB); assay type: cell-based; details: Xav, 25°C, 48 h, OD 600 nm, lowest concentration with no growth, given as interval of tested concentrations, three replicates, experiment repeated twice
Description: as §4, §2, §3

[7] = tested on: Xanthomonas fragariae Xf349-9A; test: MIC, growth inhibition in microtiter plates (TSB); assay type: cell-based; details: Xf, 25°C, 48 h, OD 600 nm, lowest concentration with no growth, given as interval of tested concentrations, three replicates, experiment repeated twice
Description: as §4, §2, §3

[8] = tested on: Erwinia amylovora PMV6076; test: MIC, growth inhibition in microtiter plates (TSB); assay type: cell-based; details: Ea, 25°C, 48 h, OD 600 nm, lowest concentration with no growth, given as interval of tested concentrations, three replicates, experiment repeated twice
Description: as §4, §2, §3

[9] = tested on: Xanthomonas arboricola pv. pruni CFBP5563; test: MIC, growth inhibition in microtiter plates (TSB); assay type: cell-based; details: Xap, 25°C, 48 h, OD 600 nm, lowest concentration with no growth, given as interval of tested concentrations, three replicates, experiment repeated twice
Description: as §4, §2, §3

Row | Structure (SMILES) | BCB gene expression, fold induction [1] | ERT3 gene expression, fold induction [1] | GluA gene expression, fold induction [1] | Harp gene expression, fold induction [1] | LOX gene expression, fold induction [1] | Osm2 gene expression, fold induction [1] | PPO gene expression, fold induction [1] | PR1 gene expression, fold induction [1] | PinII gene expression, fold induction [1] | Sub1 gene expression, fold induction [1] | Tas14 gene expression, fold induction [1] | MIC [2] | MIC [3] | MIC [4] | MIC [5] | MIC [6] | MIC [7] | MIC [8] | MIC [9]
1 | CSC(=O)c1cccc2nnsc12 [ASM, acybenzolar-S-methyl, reference compound] | 12.1 | 2.9 | 5.9 | 6.3 | 3.3 | 8.7 | 2.9 | 4.8 | 0.5 | 11.6 | 10.7 |  |  |  |  |  |  |  | 
2 | CCCCCC(=O)N[C@@H](CCCCN)C(=O)N[C@@H](CCCCN)C(=O)N[C@@H](CC(C)C)C(=O)N[C@@H](Cc1ccccc1)C(=O)N[C@@H](CCCCN)C(=O)N[C@@H](CCCCN)C(=O)N[C@H](C(=O)N[C@@H](CC(C)C)C(=O)N[C@@H](CCCCN)C(=O)N[C@@H](Cc1ccc(O)cc1)C(=O)N[C@@H](CC(C)C)C(N)=O)[C@@H](C)CC [BP367, C5H11CO-KKLFKKILKYL-NH2] |  |  |  |  |  |  |  |  |  |  |  | 12.5 to 25 µM | 1.6 to 3.1 µM | 3.1 to 6.2 µM | 3.1 to 6.2 µM | 3.1 to 6.2 µM | 3.1 to 6.2 µM | 3.1 to 6.2 µM | 3.1 to 6.2 µM
3 | CCCCCC(=O)NCCCC[C@H](NC(C)=O)C(=O)N[C@@H](CCCCN)C(=O)N[C@@H](CC(C)C)C(=O)N[C@@H](Cc1ccccc1)C(=O)N[C@@H](CCCCN)C(=O)N[C@@H](CCCCN)C(=O)N[C@H](C(=O)N[C@@H](CC(C)C)C(=O)N[C@@H](CCCCN)C(=O)N[C@@H](Cc1ccc(O)cc1)C(=O)N[C@@H](CC(C)C)C(N)=O)[C@@H](C)CC [BP368, Ac-K(COC5H11)KLFKKILKYL-NH2] |  |  |  |  |  |  |  |  |  |  |  | 1.6 to 3.1 µM | 0.8 to 1.6 µM | 6.2 to 12.5 µM | 6.2 to 12.5 µM | 3.1 to 6.2 µM | 6.2 to 12.5 µM | 6.2 to 12.5 µM | 3.1 to 6.2 µM
4 | CCCCCC(=O)NCCCC[C@H](NC(=O)[C@H](CCCCN)NC(C)=O)C(=O)N[C@@H](CC(C)C)C(=O)N[C@@H](Cc1ccccc1)C(=O)N[C@@H](CCCCN)C(=O)N[C@@H](CCCCN)C(=O)N[C@H](C(=O)N[C@@H](CC(C)C)C(=O)N[C@@H](CCCCN)C(=O)N[C@@H](Cc1ccc(O)cc1)C(=O)N[C@@H](CC(C)C)C(N)=O)[C@@H](C)CC [BP369, Ac-KK(COC5H11)LFKKILKYL-NH2] |  |  |  |  |  |  |  |  |  |  |  | 1.6 to 3.1 µM | 0.4 to 0.8 µM | 6.2 to 12.5 µM | 3.1 to 6.2 µM | 3.1 to 6.2 µM | 3.1 to 6.2 µM | 6.2 to 12.5 µM | 0.8 to 1.6 µM
5 | CCCC(=O)NCCCC[C@H](NC(=O)[C@H](CCCCN)NC(=O)[C@H](CCCCN)NC(=O)[C@H](Cc1ccccc1)NC(=O)[C@H](CC(C)C)NC(=O)[C@H](CCCCN)NC(=O)[C@H](CCCCN)NC(C)=O)C(=O)N[C@@H](CC(C)C)C(=O)N[C@@H](CCCCN)C(=O)N[C@@H](Cc1ccc(O)cc1)C(=O)N[C@@H](CC(C)C)C(N)=O [BP386, Ac-KKLFKKK(COC3H7)LKYL-NH2] |  |  |  |  |  |  |  |  |  |  |  | >25 µM | 12.5 to 25 µM |  | 6.2 to 12.5 µM | 12.5 to 25 µM | 12.5 to 25 µM | 12.5 to 25 µM | 12.5 to 25 µM
6 | CC/C=C\C[C@H]1C(=O)CC[C@@H]1CC(=O)O [JA, jasmonic acid, reference compound] | 6.6 | 41.3 | 0.2 | 1.9 | 9.7 | 48.4 | >50 | 2.9 | >50 | 3.9 | 0.88 |  |  |  |  |  |  |  | 
